Test results from US20230048132A1, “CYCLIN-DEPENDENT KINASE INHIBITORS” (SPV THERAPEUTICS INC., priority 2018, published 2023).

Legend:
Assay in all cases: CDK inhibition assay (microfluidic LabChip, IC50 format)
[1] = biological target: CDK7 CyclinH (Homo sapiens, UniProt P50613); format: biochemical; details: Table 4a
[2] = biological target: CDK4-CYCLIND1 (Homo sapiens, UniProt P11802); details: CDK4 CyclinD1 IC50, Table 4a; a second value in parentheses for some compounds
[3] = biological target: T1, CDK6-CYCLIND3 (Homo sapiens, UniProt Q00534); format: biochemical; details: Table 4a; read-out: CDK6 CyclinD3 IC50
T1 construct: purchased Carna
T1 sequence (Q00534 whole entry): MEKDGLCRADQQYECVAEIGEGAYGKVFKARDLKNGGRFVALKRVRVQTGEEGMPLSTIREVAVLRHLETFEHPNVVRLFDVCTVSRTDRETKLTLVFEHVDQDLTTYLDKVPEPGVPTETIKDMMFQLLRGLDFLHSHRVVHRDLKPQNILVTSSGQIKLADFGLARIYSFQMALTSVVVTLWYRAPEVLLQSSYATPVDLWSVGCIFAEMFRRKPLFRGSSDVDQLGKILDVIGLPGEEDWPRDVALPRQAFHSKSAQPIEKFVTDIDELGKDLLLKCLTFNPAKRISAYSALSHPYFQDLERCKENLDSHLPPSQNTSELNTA
T1 sequence (P30281 whole entry partner): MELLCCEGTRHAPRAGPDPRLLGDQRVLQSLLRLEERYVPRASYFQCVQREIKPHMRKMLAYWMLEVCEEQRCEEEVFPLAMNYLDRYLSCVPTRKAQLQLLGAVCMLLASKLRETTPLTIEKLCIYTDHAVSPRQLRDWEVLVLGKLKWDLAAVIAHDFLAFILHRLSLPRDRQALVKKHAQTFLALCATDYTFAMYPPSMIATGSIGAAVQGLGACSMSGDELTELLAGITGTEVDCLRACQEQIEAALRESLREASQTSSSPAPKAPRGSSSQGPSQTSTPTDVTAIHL

[4] = biological target: T2, CDK2-CYCLINA (Homo sapiens, UniProt P24941); format: biochemical; details: Table 4a; read-out: CDK2 CyclinA IC50
T2 construct: purchased Millipore

[5] = biological target: T3, CDK9-CYCLINT1 (Homo sapiens, UniProt P50750); format: biochemical; details: Table 4a; read-out: CDK9 CyclinT1 IC50
T3 construct: purchased Carna
T3 sequence (P50750 whole entry): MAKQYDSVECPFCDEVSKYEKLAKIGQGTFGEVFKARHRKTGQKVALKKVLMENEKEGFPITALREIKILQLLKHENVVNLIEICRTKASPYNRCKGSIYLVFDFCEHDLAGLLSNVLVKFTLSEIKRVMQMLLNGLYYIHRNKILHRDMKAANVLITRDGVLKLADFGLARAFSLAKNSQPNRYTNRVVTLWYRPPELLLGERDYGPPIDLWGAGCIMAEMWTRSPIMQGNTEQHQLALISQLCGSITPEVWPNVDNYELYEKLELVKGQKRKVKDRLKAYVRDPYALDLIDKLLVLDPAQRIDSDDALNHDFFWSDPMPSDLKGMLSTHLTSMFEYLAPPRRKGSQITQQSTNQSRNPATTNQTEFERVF
T3 sequence (O60563 whole entry partner): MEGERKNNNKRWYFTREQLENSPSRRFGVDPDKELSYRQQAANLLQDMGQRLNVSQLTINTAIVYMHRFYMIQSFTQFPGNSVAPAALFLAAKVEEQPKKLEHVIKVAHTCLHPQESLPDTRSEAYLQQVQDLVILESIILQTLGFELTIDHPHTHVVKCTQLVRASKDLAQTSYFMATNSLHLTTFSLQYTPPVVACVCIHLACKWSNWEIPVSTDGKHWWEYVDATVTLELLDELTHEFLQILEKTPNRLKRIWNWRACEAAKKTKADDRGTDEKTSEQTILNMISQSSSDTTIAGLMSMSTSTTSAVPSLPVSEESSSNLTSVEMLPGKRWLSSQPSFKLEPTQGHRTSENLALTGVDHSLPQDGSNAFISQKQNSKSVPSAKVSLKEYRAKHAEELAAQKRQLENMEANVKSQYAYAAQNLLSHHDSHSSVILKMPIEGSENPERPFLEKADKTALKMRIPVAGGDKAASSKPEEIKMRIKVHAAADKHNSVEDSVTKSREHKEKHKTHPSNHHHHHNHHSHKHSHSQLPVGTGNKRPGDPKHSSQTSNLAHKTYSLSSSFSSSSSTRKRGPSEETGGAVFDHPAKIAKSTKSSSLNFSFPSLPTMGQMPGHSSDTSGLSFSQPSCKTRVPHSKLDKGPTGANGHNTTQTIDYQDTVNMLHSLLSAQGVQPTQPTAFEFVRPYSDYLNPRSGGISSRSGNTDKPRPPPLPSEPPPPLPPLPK

Sequence of CDK4-CYCLIND1 (P11802 whole entry): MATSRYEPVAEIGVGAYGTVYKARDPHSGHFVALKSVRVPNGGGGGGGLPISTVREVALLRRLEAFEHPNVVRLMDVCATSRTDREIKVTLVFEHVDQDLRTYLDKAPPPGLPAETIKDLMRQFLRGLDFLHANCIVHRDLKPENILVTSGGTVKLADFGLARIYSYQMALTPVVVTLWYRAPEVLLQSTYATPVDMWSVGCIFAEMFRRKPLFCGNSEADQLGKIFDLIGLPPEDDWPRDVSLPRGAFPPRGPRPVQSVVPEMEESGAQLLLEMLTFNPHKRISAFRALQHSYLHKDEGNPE
Sequence of CDK4-CYCLIND1 (P24385 whole entry partner): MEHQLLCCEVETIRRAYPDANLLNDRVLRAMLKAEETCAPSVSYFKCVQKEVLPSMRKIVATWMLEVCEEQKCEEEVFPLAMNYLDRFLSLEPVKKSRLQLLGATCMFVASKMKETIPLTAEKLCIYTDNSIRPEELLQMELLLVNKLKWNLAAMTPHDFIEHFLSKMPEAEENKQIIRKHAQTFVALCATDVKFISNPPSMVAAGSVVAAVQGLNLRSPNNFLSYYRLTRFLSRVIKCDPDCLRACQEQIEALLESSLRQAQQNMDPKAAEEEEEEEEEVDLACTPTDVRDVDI
Sequence of CDK7 CyclinH (P50613 whole entry): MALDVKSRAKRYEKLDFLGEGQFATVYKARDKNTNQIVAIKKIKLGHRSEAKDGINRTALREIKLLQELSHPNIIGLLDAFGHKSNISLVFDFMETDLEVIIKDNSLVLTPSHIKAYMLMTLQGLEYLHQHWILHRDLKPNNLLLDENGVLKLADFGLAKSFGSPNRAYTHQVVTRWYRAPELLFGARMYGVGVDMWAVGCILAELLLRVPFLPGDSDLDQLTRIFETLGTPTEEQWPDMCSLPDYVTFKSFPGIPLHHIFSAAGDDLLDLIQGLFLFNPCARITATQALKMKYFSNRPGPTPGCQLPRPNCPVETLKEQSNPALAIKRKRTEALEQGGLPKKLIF
Sequence of CDK7 CyclinH (P51946 whole entry partner): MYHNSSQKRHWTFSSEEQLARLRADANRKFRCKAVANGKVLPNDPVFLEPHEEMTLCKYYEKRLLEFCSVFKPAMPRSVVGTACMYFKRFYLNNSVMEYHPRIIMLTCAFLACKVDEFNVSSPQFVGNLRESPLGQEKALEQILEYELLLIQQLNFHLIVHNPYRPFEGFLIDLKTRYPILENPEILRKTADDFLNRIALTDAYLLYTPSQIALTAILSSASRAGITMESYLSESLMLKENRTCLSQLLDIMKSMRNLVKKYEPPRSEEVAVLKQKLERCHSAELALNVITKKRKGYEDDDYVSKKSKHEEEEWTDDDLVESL
Sequence of CDK7 CyclinH (P51948 whole entry partner): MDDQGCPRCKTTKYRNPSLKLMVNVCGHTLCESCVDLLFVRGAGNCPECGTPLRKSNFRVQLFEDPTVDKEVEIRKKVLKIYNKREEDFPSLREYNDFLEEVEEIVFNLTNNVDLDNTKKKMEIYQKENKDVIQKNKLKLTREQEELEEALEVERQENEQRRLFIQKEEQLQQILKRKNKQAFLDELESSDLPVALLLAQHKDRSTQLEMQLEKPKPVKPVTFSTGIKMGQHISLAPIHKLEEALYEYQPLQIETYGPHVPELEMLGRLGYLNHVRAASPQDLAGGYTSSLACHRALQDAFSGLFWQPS

IC50 [1] [µM]	IC50 [2] [µM]	IC50 [3] [µM]	IC50 [4] [µM]	IC50 [5] [µM]	SMILES
0.34	0.00122	0.00282	0.0356	0.00752	O=C1NCC[C@@]12Cc1cnc(Nc3ccc(N4CCNCC4)nc3)nc1N(C1CCCC1)C2=O [Example D149, (S)-8-cyclopentyl-2-((6-(piperazin-1-yl)pyridin-3-yl)amino)-5,8-dihydro-7H-spiro[pyrido[2,3-d]pyrimidine-6,3′-pyrrolidine]-2′,7-dione]
0.402	0.00116	0.00234	0.0529	0.00686	CN1CCN(c2ccc(Nc3ncc4c(n3)N(C3CCCC3)C(=O)[C@]3(CCNC3=O)C4)cn2)CC1 [Example D150, (S)-8-cyclopentyl-2-((6-(4-methylpiperazin-1-yl)pyridin-3-yl)amino)-5,8-dihydro-7H-spiro[pyrido[2,3-d]pyrimidine-6,3′-pyrrolidine]-2′,7-dione]
19	0.00118	0.00164	1.71	0.12	O=C1NCC[C@@]12Cc1cnc(Nc3ccc(N4CCNCC4)cn3)nc1N(C1CCCC1)C2=O [Example D152, (S)-8-cyclopentyl-2-((5-(piperazin-1-yl)pyridin-2-yl)amino)-5,8-dihydro-7H-spiro[pyrido[2,3-d]pyrimidine-6,3′-pyrrolidine]-2′,7-dione]
18.4	0.00294	0.00362	2.44	0.316	CN1CCN(c2ccc(Nc3ncc4c(n3)N(C3CCCC3)C(=O)[C@]3(CCNC3=O)C4)nc2)CC1 [Example D153, (S)-8-cyclopentyl-2-((5-(4-methylpiperazin-1-yl)pyridin-2-yl)amino)-5,8-dihydro-7H-spiro[pyrido[2,3-d]pyrimidine-6,3′-pyrrolidine]-2′,7-dione]
14.7	0.00622	0.00858	3.44	1.18	CCN1CCN(Cc2ccc(Nc3ncc4c(n3)N(C3CCCC3)C(=O)[C@]3(CCNC3=O)C4)nc2)CC1 [Example D155, (S)-8-cyclopentyl-2-((5-((4-ethylpiperazin-1-yl)methyl)pyridin-2-yl)amino)-5,8-dihydro-7H-spiro[pyrido[2,3-d]pyrimidine-6,3′-pyrrolidine]-2′,7-dione]
0.166	0.00092	0.0023	0.0198	0.00391	Cc1cc(Nc2ncc3c(n2)N(C2CCCC2)C(=O)[C@]2(CCNC2=O)C3)ccc1N1CCNCC1 [Example D156, (S)-8-cyclopentyl-2-((3-methyl-4-(piperazin-1-yl)phenyl)amino)-5,8-dihydro-7H-spiro[pyrido[2,3-d]pyrimidine-6,3′-pyrrolidine]-2′,7-dione]
0.164	0.000908	0.00151	0.0183	0.00367	Cc1cc(Nc2ncc3c(n2)N(C2CCCC2)C(=O)[C@]2(CCNC2=O)C3)ccc1N1CCN(C)CC1 [Example D157, (S)-8-cyclopentyl-2-((3-methyl-4-(4-methylpiperazin-1-yl)phenyl)amino)-5,8-dihydro-7H-spiro[pyrido[2,3-d]pyrimidine-6,3′-pyrrolidine]-2′,7-dione]
0.318	0.00162	0.00447	0.035	0.00734	COc1cc(Nc2ncc3c(n2)N(C2CCCC2)C(=O)[C@]2(CCNC2=O)C3)ccc1N1CCNCC1 [Example D159, (S)-8-cyclopentyl-2-((3-methoxy-4-(piperazin-1-yl)phenyl)amino)-5,8-dihydro-7H-spiro[pyrido[2,3-d]pyrimidine-6,3′-pyrrolidine]-2′,7-dione]
0.157	0.0012	0.00341	0.0335	0.00641	COc1cc(Nc2ncc3c(n2)N(C2CCCC2)C(=O)[C@]2(CCNC2=O)C3)ccc1N1CCN(C)CC1 [Example D160, (S)-8-cyclopentyl-2-((3-methoxy-4-(4-methylpiperazin-1-yl)phenyl)amino)-5,8-dihydro-7H-spiro[pyrido[2,3-d]pyrimidine-6,3′-pyrrolidine]-2′,7-dione]
0.157	0.00129	0.00388	0.0305	0.00727	COc1cc(Nc2ncc3c(n2)N(C2CCCC2)C(=O)[C@]2(CCNC2=O)C3)ccc1N1CCN(C(C)C)CC1 [Example D161, (S)-8-cyclopentyl-2-((4-(4-isopropylpiperazin-1-yl)-3-methoxyphenyl)amino)-5,8-dihydro-7H-spiro[pyrido[2,3-d]pyrimidine-6,3′-pyrrolidine]-2′,7-dione]
3.24	0.00534	0.0104	0.382	0.0619	Cc1cc(N2CCNCC2)ccc1Nc1ncc2c(n1)N(C1CCCC1)C(=O)[C@]1(CCNC1=O)C2 [Example D162, (S)-8-cyclopentyl-2-((2-methyl-4-(piperazin-1-yl)phenyl)amino)-5,8-dihydro-7H-spiro[pyrido[2,3-d]pyrimidine-6,3′-pyrrolidine]-2′,7-dione]
2.63	0.00902	0.0106	0.338	0.0651	Cc1cc(N2CCN(C)CC2)ccc1Nc1ncc2c(n1)N(C1CCCC1)C(=O)[C@]1(CCNC1=O)C2 [Example D163, (S)-8-cyclopentyl-2-((2-methyl-4-(4-methylpiperazin-1-yl)phenyl)amino)-5,8-dihydro-7H-spiro[pyrido[2,3-d]pyrimidine-6,3′-pyrrolidine]-2′,7-dione]
3.16	0.00905	0.0137	0.744	0.0719	Cc1cc(N2CCN(C(C)C)CC2)ccc1Nc1ncc2c(n1)N(C1CCCC1)C(=O)[C@]1(CCNC1=O)C2 [Example D164, (S)-8-cyclopentyl-2-((4-(4-isopropylpiperazin-1-yl)-2-methylphenyl)amino)-5,8-dihydro-7H-spiro[pyrido[2,3-d]pyrimidine-6,3′-pyrrolidine]-2′,7-dione]
7.3	0.0292	0.0585	0.775	0.236	COc1cc(N2CCNCC2)ccc1Nc1ncc2c(n1)N(C1CCCC1)C(=O)[C@]1(CCNC1=O)C2 [Example D165, (S)-8-cyclopentyl-2-((2-methoxy-4-(piperazin-1-yl)phenyl)amino)-5,8-dihydro-7H-spiro[pyrido[2,3-d]pyrimidine-6,3′-pyrrolidine]-2′,7-dione]
12	0.069	0.111	2.9	0.418	COc1cc(N2CCN(C(C)C)CC2)ccc1Nc1ncc2c(n1)N(C1CCCC1)C(=O)[C@]1(CCNC1=O)C2 [Example D167, (S)-8-cyclopentyl-2-((4-(4-isopropylpiperazin-1-yl)-2-methoxyphenyl)amino)-5,8-dihydro-7H-spiro[pyrido[2,3-d]pyrimidine-6,3′-pyrrolidine]-2′,7-dione]
> 100	0.0423	0.0531	8.56	0.39	CC(C)n1cc(-c2ccc(Nc3ncc4c(n3)N(C3CCCC3)C(=O)[C@]3(CCNC3=O)C4)nc2)cn1 [Example D170, (S)-8-cyclopentyl-2-((5-(1-isopropyl-1H-pyrazol-4-yl)pyridin-2-yl)amino)-5,8-dihydro-7H-spiro[pyrido[2,3-d]pyrimidine-6,3′-pyrrolidine]-2′,7-dione]
